Data as given in patent US20100298402A1, “STILBENE DERIVATIVES AS PSTAT3/IL-6 INHIBITORS” (ORCHID RESEARCH LABORATORIES LIMITED, priority 2007, published 2010).

Experiments:
Assay type in all cases: cell-based
[1] = system: pSTAT3 in HEPG2 (liver cancer) cells induced by IL-6; assay: Inhibition of pSTAT3 (IL-6 induced phosphorylation of STAT3, Phospho-STAT3 (Tyr705) Sandwich ELISA); settings: Homo sapiens, 4 hours compound, then IL-6 (10 ng/mL) 30 minutes
Experimental: The experimental drugs were tested for their effect on phosphorylation of STAT3 in HEPG2 (liver cancer) cells induced by IL-6. Test compounds were dissolved in DMSO at 20 mM and diluted in a growth medium at 2× strength. Final DMSO concentration was less than 0.5%. 100 μL of cell suspension (10×10^4 cells/mL) was added to the wells of 96 well plates and allowed to adhere for 24 hours in a CO2 incubator at 37° C. Following overnight incubation, the culture medium was replaced with 100 μL of fresh growth medium and 100 μL of test compound (s), standard (Curcumin) and growth medium (untreated) wells. The plates were incubated in CO2 incubator at 37° C. for 4 hours. After compound treatment, IL-6 (10 ng/mL) was added to the wells and incubated for 30 minutes to induce pSTAT3.
At the end of the 30 minutes incubation, cells were rinsed with ice-cold PBS and lysed with 1× Cell lysis buffer containing 1 mM PMSF (provided in the kit) on ice for 5 minutes. The cells were scraped off and transferred to an appropriate tube, sonicated on ice and centrifuged for 10 minutes at 4° C. The supernatant (cell lysate) was collected and stored at −80° C. and the levels of pSTAT3 were measured in the cell lysate by Path Scan Phospho-STAT3 (Tyr705) Sandwich ELISA kit (Cell Signaling, Cat No. 7300) by following the kit instructions.

[2] = system: IL-6 in supernatant of NCIH 460 cells; assay: Measuring IL-6 in culture supernatants (ELISA); settings: Homo sapiens, NCI-H460, 5 hours incubation
[3] = system: HCT 116 (colon), NCIH460 (lung) and U251 (glioma) cell lines; assay: Anti-cancer screen (MTT growth inhibition, 48 hours); settings: Homo sapiens; HCT 116, NCIH460 and U251 cell lines; MTT after 48 hours of incubation;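 also: mean GI50 across the three cell lines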
Experimental: The experimental drugs were screened for anti-cancer activity in three cell lines using five concentrations for each compound. The cell lines—HCT 116 (colon), NCIH460 (lung) and U251 (glioma) were maintained in DMEM containing 10% fetal bovine serum. 96-well microtiter plates are inoculated with cells in 100 μL of cell suspension (5×10^4 cells/mL) for 24 hours at 37° C., 5% CO2, 95% air and 100% relative humidity. A separate plate with these cell lines is also inoculated to determine cell viability before the addition of the compounds (T0)
Following 24-hour incubation, test compounds were added to the 96 well plates. Each plate contains one of the above cell lines and the following samples in triplicate: five different dilutions (0.01, 0.1, 1, 10 and 100 μM) of four test compounds, appropriate dilutions of a cytotoxic standard and growth medium (untreated) wells. Test compounds were dissolved in DMSO to prepare 20 mM stock solutions on the day of drug addition and serial dilutions were carried out in complete growth medium at 2× strength, such that 100 μL added to the wells gave final concentrations (0.01, 0.1, 1, 10 and 100 μM) in the well. SAHA was used as the standard drug in these experiments.
For T0 measurement, 24 hours after seeding the cells, 20 μL of 3-(4,5-dimethyl-2-thiazolyl)-2,5-diphenyl-2H-tetrazolium (MTT) solution per well was added to the ‘T0’ plate and incubated for 3 hours at 37° C. in a CO2 incubator. The plate containing cells and test compounds was treated similarly after 48 hours of incubation. After 3 hours of MTT addition, well contents were aspirated carefully followed by addition of 150 μL DMSO per well. Plates were agitated to ensure dissolution of the formazan crystals in DMSO and absorbance was read at 570 nm (A570).
Percent growth (PG) is calculated relative to the control and zero measurement wells (T0) as follows:
PG values are plotted against drug concentration to derive the following: GI50 is the concentration required to decrease PG by 50% vs control; TGI is the concentration required to decrease PG by 100% vs control and LC50 is the concentration required to decrease PG by 50% vs T0. (Mosmann T. Rapid colorimetric assay for cellular growth and survival: application to proliferation and cytotoxicity assays. (J. Immunol. Methods. 1983, 65 (1-2), 55-63; Anne Monks et al); feasibility of high-flux anticancer drug screen using a diverse panel of cultured human tumor cell lines”. (JNCI, Vol. 83, No. 11, 1991). Results for growth inhibition of synthesized compounds are given in Table-1.

Row | Compound | GI50 [3] [µM] | inhibition at 10 µM [1] [%] | inhibition at 10 µM [2] [%]
1 | COC(=O)/C(=C/c1ccc(OCC(O)CNCc2ccc(OC)cc2OC)cc1)c1ccc(C)cc1 (stereo not drawn) [Example 37, 3-{4-[3-(2,4-Dimethoxybenzylamino)-2-hydroxypropoxy]phenyl}-2-(4-methylphenyl)acrylic acid methyl ester] | 6.2 | 42 | 68.1
2 | COC(=O)/C(=C/c1ccc(OCC(O)CNCCOc2ccccc2OC)cc1)c1ccc(C)cc1 (stereo not drawn) [Example 38, 3-{4-[3-(2-Methoxyphenoxyethylamino)-2-hydroxypropoxy]phenyl}-2-(4-methylphenyl)acrylic acid methyl ester] | 9 | 77.2 | 69.1

Second part, led by results:

Row | GI50 [3] [µM] | Compound | inhibition at 10 µM [1] [%] | inhibition at 10 µM [2] [%]
3 | 9.7 | COC(=O)/C(=C/c1ccc(OCC(O)CNCc2ccc(OC)cc2OC)cc1)c1cccs1 (stereo not drawn) [Example 40, 3-{4-[3-(2,4-Dimethoxybenzylamino)-2-hydroxypropoxy]phenyl}-2-(thiophen-2-yl)acrylic acid methyl ester] | 71 | 70.5
4 | 0.86 | COC(=O)/C(=C/c1ccccc1OCC(O)CNCc1ccccc1)c1ccc(OC)cc1 (stereo not drawn) [Example 43, 3-{2-[3-(Benzylamino)-2-hydroxypropoxy]phenyl}-2-(4-methoxyphenyl)acrylic acid methyl ester] | 46.4 | 9.6
5 | 2.1 | COC(=O)/C(=C/c1ccc(OCC(O)CNCc2ccccc2)cc1)c1cccc(Cl)c1 (stereo not drawn) [Example 49, 3-{4-[3-(Benzylamino)-2-hydroxypropoxy]phenyl}-2-(3-chlorophenyl)acrylic acid methyl ester] | 58.4 | 56
